# Measurements published in patent US6602500B1, “Paenibacillus polymyxa strain ATCC 202127 for biocontrol of bacteria and fungi” (The Governors of the University of Alberta, priority 1998, dated 2003).
# Tested on: L. maculans
# Assay: Inhibition of growth of L. maculans by other strains and polymyxins (qualitative)
# Type: cell-based, Leptosphaeria maculans
substance,measurement,value
polymyxins,inhibitory effect against L. maculans,ineffective
